The term CC50 denotes the concentration giving 50% cytotoxicity. As usually defined, the IC50 is the point on the concentration scale where inhibition reaches its midpoint. In general, TGI refers to the concentration at which net growth stops. Low readings indicate more potent growth arrest, high ones less potent growth arrest.

One data set concerns HSC-4. Description: Selectivity index, ratio of CC50 for HGF to CC50 for human HSC4 cells. Particulars: pooled result: one value given for 3 cell lines, strains, targets or settings.
Data set [1] can be described thus: Cytotoxicity against HPC assessed as cell death after 48 hrs by MTT assay. The conditions noted are these: human, HPC cells. On the technique in general: Tetrazolium assays rely on reduction of a dye to a coloured formazan, in cell work by metabolically active cells.
For the next data set, the system named is HSC-2. Description: Selectivity index, ratio of CC50 for HGF to CC50 for human HSC2 cells. The conditions noted are these: pooled result: one value given for 3 cell lines, strains, targets or settings.
The test system of the next data set is HL-60. Description: Selectivity index, ratio of CC50 for HGF to CC50 for human HL60 cells. Particulars: pooled result: one value given for 3 cell lines, strains, targets or settings.
The nature of data set [2]: Cytotoxicity against human HSC4 cells assessed as cell death after 48 hrs by MTT assay. It is filed as functional. The conditions noted are these: HSC-4, 48 h.
Data set [3] can be described thus: Cytotoxicity against human HSC3 cells assessed as cell death after 48 hrs by MTT assay. It is filed as functional. The conditions noted are these: HSC-3, 48 h.
The test system of data set [4] is CCRF-CEM. Description: Antiproliferative activity against human CEM cells assessed as cell survival after 72 hrs by coulter counter analysis. It counts as functional, cell-based.
A short description of data set [5]: Cytotoxicity against human HSC2 cells assessed as cell death after 48 hrs by MTT assay. It counts as functional. The conditions noted are these: HSC-2, 48 h.
Data set [6] in a line: Antiproliferative activity against human Molt4/C8 cells assessed as cell survival after 72 hrs by coulter counter analysis. It is filed as functional, cell-based. The conditions noted are these: MOLT-4, 72 h.
The nature of data set [7]: Cytotoxicity against HGF assessed as cell death after 48 hrs by MTT assay. The conditions noted are these: human, HGF cells.
The subject of a further data set is L1210. In words: Antiproliferative activity against mouse L1210 cells assessed as cell survival after 48 hrs by coulter counter analysis. It counts as functional, cell-based. The conditions noted are these: L1210, 48 h.
The subject of a further data set is HSC-3. In words: Selectivity index, ratio of CC50 for HGF to CC50 for human HSC3 cells. Particulars: pooled result: one value given for 3 cell lines, strains, targets or settings.
Data set [8] in a line: Cytotoxicity against HPLF assessed as cell death after 48 hrs by MTT assay. The conditions noted are these: human, HPLF cells.
Data set [9] in a line: Cytotoxicity against human HL60 cells assessed as cell death after 48 hrs by MTT assay. It is filed as functional. The conditions noted are these: HL-60, 48 h.
The nature of data set [10]: Potency index, ratio of melphalan IC50 to compound IC50 for antiproliferative activity against human Molt4/C8 cells. It counts as functional, MOLT-4.
In data set [11] the test system is CCRF-CEM. In words: Potency index, ratio of melphalan IC50 to compound IC50 for antiproliferative activity against human CEM cells. It is filed as functional.
The next data set concerns HT-29. Description: Cytotoxicity against human HT-29 cells after 48 hrs by sulforhodamine B assay. It counts as functional, cell-based. The conditions noted are these: HT-29, 48 h. (In general: The SRB assay estimates cell density from bound dye.)
Data set [12] is described as follows: Cytotoxicity against human HCT15 cells after 48 hrs by sulforhodamine B assay. The conditions noted are these: HCT-15, 48 h. It counts as functional, cell-based.
The nature of data set [13]: Cytotoxicity against human SW620 cells after 48 hrs by sulforhodamine B assay. It counts as functional, cell-based. The conditions noted are these: SW-620, 48 h.
Another data set relates to KM12. Description: Cytotoxicity against human KM12 cells after 48 hrs by sulforhodamine B assay. It is filed as functional, cell-based. Particulars: KM12, 48 h.
Data set [14] is described as follows: Cytotoxicity against human HCC2998 cells after 48 hrs by sulforhodamine B assay. It counts as functional, cell-based. The conditions noted are these: HCC 2998, 48 h.
A short description of data set [15]: Cytotoxicity against human HCT116 cells after 48 hrs by sulforhodamine B assay. The conditions noted are these: HCT-116, 48 h. It is filed as functional, cell-based.
Data set [16] is described as follows: Cytotoxicity against human COLO205 cells after 48 hrs by sulforhodamine B assay. It is filed as functional, cell-based. Particulars: COLO 205, 48 h.

For the molecule `O=C(/C=C/c1ccc(O)cc1)/C=C/c1ccc(O)cc1`, the “Selectivity Index” value in the data set with HSC-4 worked out at 3.35; in the data set with HSC-2, 3.09; with HL-60, 4.21; with HSC-3, 3.04. The results for the CC50 at 48 h in data set [1], in [7] and in [8] were 9.2 µM, 24 µM and 16 µM, respectively. The CC50 in data set [2] was found to be 4.9 µM; in data set [3] it was 5.4 µM; in data set [5] it was 5.3 µM; in data set [9] it was 3.9 µM. The concentration for half-maximal inhibition (IC50) worked out at 3.38 µM with CCRF-CEM [4], 3.69 µM in data set [6] and 7.74 µM in the data set on L1210.
In the case of `Cl.Cl.Cl.O=C1/C(=C/c2ccc(O)c(CN3CCOCC3)c2)CNC/C1=C\c1ccc(O)c(CN2CCOCC2)c1`, the “Ratio IC50” value in [10] was found to be 2.03; in the data set with CCRF-CEM [11], 1.48. In addition, the “Selectivity Index” value with HSC-4 came out at 3.3; in the data set on HSC-2 it was 6.05; in the data set on HL-60 it was 5.11; in the data set with HSC-3, 3.63. Also, the cytotoxic concentration (CC50) at 48 h worked out at 3.4 µM in data set [1], 3.7 µM in [7] and 3.8 µM in data set [8]. The CC50 in data set [2] is 1.1 µM; in [3], 1 µM; in data set [5], 0.6 µM; in [9], 0.71 µM. Further, the IC50 was 1.67 µM in the data set with CCRF-CEM [4], 1.6 µM in data set [6] and 7.78 µM in the data set with L1210.
For `O=C1/C(=C/c2ccc(O)cc2)CCC/C1=C\c1ccc(O)cc1`, in data set [10], the “Ratio IC50” value came to 3.06. Also, the “Selectivity Index” value in the data set with HSC-4 is on record as over 3.23; with HSC-2, over 12.5; in the data set with HL-60, over 105; in the data set with HSC-3, over 4. Also, the 50% cytotoxic concentration (CC50) at 48 h in data set [1], in data set [7] and in [8] was over 200 µM in each case. Also, the CC50 worked out at 62 µM in data set [2], 50 µM in [3], 16 µM in data set [5] and 1.9 µM in data set [9]. The values for the IC50 (with CCRF-CEM [4]; in data set [6]; in the data set with L1210) were 6.96 µM, 1.06 µM and 10.7 µM, respectively.
`N[C@@H](Cc1ccc(N(CCCl)CCCl)cc1)C(=O)O`: the “Selectivity Index” value in the data set with HSC-4 is 6.56; in the data set with HSC-2, 24.1; with HL-60, 150; with HSC-3, 8.4. Further, the CC50 came to 32 µM in data set [2], 25 µM in data set [3], 8.7 µM in [5] and 1.4 µM in data set [9].
As for `O=c1[nH]cc(F)c(=O)[nH]1` [FLUOROURACIL], the CC50 (with HT-29; in data set [12]; in data set [13]; in the data set with KM12; in data set [14]; in data set [15]) was over 2510 µM throughout. The CC50 in data set [16] was over 2510 µM. For the same molecule, the concentration for total growth inhibition (TGI) (in the data set on HT-29; in data set [12]; in [13]; in the data set with KM12; in data set [14]; in data set [15]) was over 1860 µM throughout. In data set [16], this molecule yielded a total growth inhibition concentration (TGI) of over 1860 µM.
